Assay results published in patent US8703156B2, “Liquid formulation for deferiprone with palatable taste” (Apotex Technologies Inc., priority 2008, dated 2014).
Peptide text beside a SMILES is read from it.

Test: degradation of Aspartame following 2 months storage
Type: physicochemical
Details: pH below 3.4; confirmed by degradation following 2 months storage
Excerpt: The sweetener was changed to Aspartame. After another round of taste testing the formulation with 10 g/L of Aspartame became the most acceptable formulation in terms of taste tolerability, but Aspartame is unstable at pH below 3.4 and this was confirmed by testing the degradation of Aspartame following 2 months storage.

COC(=O)[C@H](Cc1ccccc1)NC(=O)[C@@H](N)CC(=O)O [Aspartame] (HELM PEPTIDE1{D.F.[CO[*:1]]}$$$$V2.0)
stability of Aspartame: unstable
